One compound from patent US7202280B2, “Methods for the treatment and prevention of pancreatitis and for induction of liver regeneration” (priority 2002, dated 2007) can be followed below.

For one assay, the system named is SSAT transgenic rats. Kind of assay: Stability of the analogues in the liver of SSAT transgenic rats without or with MDL72527 (hepatic polyamine pools). Format: in vivo, rat. Particulars: MDL72527 50 mg/kg i.p. twice. Here is the method: FIGS. 8A-8D. Hepatic polyamine pools in SSAT transgenic rats treated with methylated polyamine analogues without or with MDL72527. The rats were injected twice with MDL72527 (50 mg/kg i.p.) at 16-h interval. The polyamine analogues (25 mg/kg i.p.) were injected 2 and 8 h later. The animals were sacrificed 24 h after the last MDL72527 injection. There were three to four animals in each group. Put, putrescine; […] Spd, spermidine; Me-Spd, α-methylspermidine; […] The production of transgenic Wistar rats (UKUR30) and mice (UKU181) harboring metallothionein-SSAT fusion gene (Suppola, […]., Porter, C. W., and Jänne, J. (1999) Biochem. […] (2000) Proc. Natl. Acad. Sci. U.S.A. 97, 8290-8295; Lukkarinen, […]., and Alhonen, L. (1997) Stroke 28, 639-645). Partial hepatectomy was carried out according to the original method of Higgins and Anderson (Higgins, G. H., and Anderson, R. M. (1931) Arch. Pathol. 12, 186-202). Treatments before partial hepatectomy and the determination of DNA synthesis were carried out as in ([…]., Suppola, […]., and […]. Biol. Chem. 277, 39867-39872). Transgenic 10 weeks old male rats were injected twice with MDL72527 (50 mg/kg i.p.) at 16-h interval to inactivate PAO according to (Bolkenius, F. N., Bey, P., and Seiler, N. (1985) Biochim. Biophys. […] An aliquot of the homogenates was used for the polyamine assays. The homogenates were centrifuged (at 13 000×g, for 30 min, at 4° C.) and the supernatants were used for the enzyme activity assays. The Institutional Animal Care and Use Committee of the University of Kuopio and by the Provincial Government approved animal experiments. […] Merck (Darmstadt, Germany).

The next assay has as its system PAO. Kind of assay: Hepatic PAO activity in SSAT transgenic rats after polyamine analogues without or with MDL72527. The following applies: MDL72527 50 mg/kg i.p. twice, alone or in combination with the analogues. In kind it is in vivo, rat. The procedure: FIGS. 9A–9B. Effect of polyamine analogues without or with MDL72527 on hepatic SSAT (FIG. 9A) and PAO (FIG. 9B) activities in SSAT transgenic rats. The rats were treated with the drugs as described in the legend for FIGS. 8A–8D. There were three to four animals in each group.
The production of transgenic Wistar rats (UKUR30) and mice (UKU181) harboring metallothionein-SSAT fusion gene (Suppola, S., Pietilä, M., Parkkinen, J. J., Korhonen, V. P., Alhonen, L., Halmekytö, M., Porter, C. W., and Jänne, J. (1999) Biochem. J. 338, 311–316) has been described earlier (Alhonen, L., Parkkinen, J. J., Keinänen, T., Sinervirta, R., Herzig, K. H., and Jänne, J. (2000) Proc. Natl. Acad. Sci. U.S.A. 97, 8290–8295; Lukkarinen, J., Gröhn, O., Sinervirta, R., Järvinen, A., Kauppinen, R. A., Jänne, J., and Alhonen, L. (1997) Stroke 28, 639–645). Partial hepatectomy was carried out according to the original method of Higgins and Anderson (Higgins, G. H., and Anderson, R. M. (1931) Arch. Pathol. 12, 186–202). […]
PAO activity was measured to verify the effectiveness of MDL72527 treatment and to determine whether the analogues have any effect on its activity. […]

As for `C=C=CCNCCCCNCC=C=C` [MDL72527, reference compound], the “hepatic putrescine and N^1-acetylspermidine pools” value in the assay with SSAT transgenic rats is “greatly reduced putrescine content and increased the pool of N^1-acetylspermidine”. Also, the “hepatic PAO activity” value in the assay on PAO was “virtually completely inhibited PAO activity”.
